Holding throughout (assay): DTP human tumour cell line panel, 48 h
In assay [1] the test system is CAKI-1 renal.
In assay [2] the test system is COLO 205 colon.
Assay [3] has as its system EKVX NSCLC.
Assay [4] deals with HL-60(TB) leukemia.
The test system of assay [5] is NCI-H226 lung.
The test system of assay [6] is SK-MEL-28 melanoma.
In assay [7] the test system is SN12C renal.
In assay [8] the test system is UACC-62 melanoma.
Assay [9] relates to RPMI-8226 leukemia.
For assay [10], the system named is HS 578T breast.

The results in this text go back to PubChem BioAssay (NCI).

As a reminder, the TGI is the concentration giving total growth inhibition. A low value points to greater sensitivity of the cells. One may read the GI50 as the concentration at which growth is held to half of that of the control.

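Growth conditions: 96-well plates. Treatment: test compound, 48 hours, 5 concentrations. Analysis: linear interpolation between bracketing concentrations; unreached endpoints set to highest concentration. GI50 is the concentration that inhibits growth by half. At the TGI there is no net growth.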

On to `CC1=C(C(=O)Nc2ccc(C)cc2)C(c2cccc([N+](=O)[O-])c2)C(C(=O)Nc2ccc(C)cc2)=C(C)N1`, for which the TGI in [1] is more than 100 µM; in assay [2] it was 28.1 µM; in [3] it was 86.1 µM; in assay [4], 39.4 µM; in [5], more than 100 µM; in assay [6] it was more than 100 µM. The total growth inhibition concentration (TGI) in assay [7] amounted to 67.4 µM; in assay [8] it was 30.4 µM.

`Cc1ccccc1-n1c(CCl)nc2ccc(Br)cc2c1=O`: the TGI is 3.75 µM in assay [1]; 26.4 µM in [2]; 35 µM in assay [3]; 17 µM in [4]; 28.4 µM in assay [5]; 71.4 µM in [9]. In addition, the concentration for total growth inhibition (TGI) in assay [6] is 32.5 µM; in assay [7] it was 16.6 µM; in [8] it was 17.9 µM.

Turning to `CCCCCCCCCCCCCCCCCC[S+](C)CC` (stereo unspecified), the GI50 in assay [1] was 0.409 µM; in assay [2], 1.42 µM; in assay [3] it was 1.95 µM; in [4] it was 1.17 µM; in assay [5], 2.08 µM; in assay [6], 1.67 µM. In addition, the GI50 in assay [7] is 1.86 µM. For the same compound, the TGI was found to be 1.6 µM in [1]; 2.81 µM in assay [2]; 4.31 µM in [3]; 3.8 µM in assay [4]; 7.58 µM in assay [5]; 3.71 µM in [6]. In addition, in assay [7], the TGI was 4.44 µM.

In the case of `CC(=O)Nc1ccc(C2=N/C(=C\c3ccc(Cl)cc3)C(=O)O2)cc1`, the TGI is more than 100 µM in assay [1]; more than 100 µM in assay [2]; more than 100 µM in assay [3]; 85.8 µM in assay [4]; more than 100 µM in assay [5]; more than 100 µM in [9]. Also, the TGI was more than 100 µM in assay [6], 61.5 µM in [7] and more than 100 µM in [8].

For the compound `COC(=O)C1=CC(=O)[C@@H]2CCCC[C@H]12`, the TGI in assay [1], in assay [2], in assay [4], in assay [5], in assay [9] and in [6] was more than 100 µM throughout. The TGI in assay [7] and in assay [8] was more than 100 µM each time.

As to `O=C(CC1(O)C(=O)Nc2ccccc21)c1ccccc1O` (stereo unspecified), the TGI in assay [1], in assay [2], in [3], in [4], in assay [5] and in assay [9] was more than 100 µM each time. Further, the total growth inhibition concentration (TGI) in assay [6], in assay [7] and in assay [8] was more than 100 µM each time.

Regarding `Cc1c(C(=O)c2ccccc2)[n+](=O)c2cc(F)c(F)cc2n1[O-]`, the GI50 in assay [1] was 1.88 µM; in assay [2] it was 3.31 µM; in [3] it was 10.4 µM; in assay [10] it was 2.08 µM; in [5], 2.67 µM; in assay [8], 1.51 µM. For the same compound, the TGI was determined as 3.45 µM in assay [1]; 11.5 µM in assay [2]; 33 µM in assay [3]; 4.68 µM in assay [10]; 4.34 µM in assay [5]; 2.83 µM in [8].

Take `Fc1ccc(Nc2nc3nonc3nc2Nc2ccc(I)cc2)cc1`: the 50% growth inhibitory concentration (GI50) in assay [1] is 0.251 µM; in [2] it was 0.208 µM; in assay [3], 0.273 µM; in assay [10] it was 0.617 µM; in [5], 0.319 µM; in assay [9], 0.0855 µM. Also, the GI50 in [6] is 0.34 µM; in assay [7], 0.26 µM; in [8], 0.142 µM. Further, the TGI in [1] stood at 14.7 µM; in [2], 0.55 µM; in assay [3], 10.1 µM; in [10] it was 13.6 µM; in assay [5], 1.94 µM; in [9], 2.13 µM. The TGI in assay [6] was 4.63 µM; in assay [7], 11.2 µM; in assay [8], 2.16 µM.

Consider `O=C(NN1C(=O)CSC1c1c(Cl)cccc1Cl)C(O)c1ccccc1` (stereo unspecified), for which the GI50 in assay [1] is 23.9 µM; in [2], 34.1 µM; in assay [3], 59.6 µM; in assay [10] it was more than 100 µM; in assay [5], 38.1 µM; in [9], 43.8 µM. For the same compound, the GI50 in assay [6] was 63.7 µM; in assay [7], 34.9 µM; in assay [8], 7.15 µM. Besides, the TGI in assay [1], in assay [2], in assay [3], in [10], in [5] and in assay [9] was more than 100 µM each time. Moreover, the TGI in assay [6] was more than 100 µM; in assay [7], more than 100 µM; in assay [8] it was 43.5 µM.

Take `Clc1ccccc1C1SCc2nc3ccccc3n21` (stereo unspecified): the concentration for total growth inhibition (TGI) is more than 100 µM in assay [1]; more than 100 µM in [2]; 81.9 µM in [3]; 42.3 µM in assay [4]; 70.6 µM in [5]; more than 100 µM in assay [9]. For the same compound, the TGI in assay [6] stood at 76.4 µM; in assay [7], 51.8 µM.

`CCc1ccccc1NC(=O)C(=O)C1C(=O)N(c2ccccc2)N=C1N` (stereo unspecified): the TGI in assay [1], in assay [3], in [4], in assay [5], in assay [9] and in assay [6] was more than 100 µM in each case. The TGI in assay [7] and in assay [8] was more than 100 µM each time.

As for `N#CCCN(c1ccc(C=O)cc1)S(=O)(=O)c1ccccc1`, the concentration for total growth inhibition (TGI) in assay [1], in [3], in assay [4], in [5], in [9] and in assay [6] was more than 100 µM each time. In addition, the TGI in assay [7] and in [8] was more than 100 µM throughout.

Take `N#Cc1cccc(C2C(=O)c3ccc(C(=O)c4ccc5c(c4)C(=O)N(c4ccc(Oc6ccc(N7C(=O)c8ccc(C(=O)c9ccc%10c(c9)C(=O)N(c9cccc(C#N)c9)C%10=O)cc8C7=O)cc6)cc4)C5=O)cc3C2=O)c1` (stereo unspecified): the TGI in assay [2], in assay [3], in assay [4], in [9], in [6] and in [7] was more than 100 µM in each case. Also, in assay [8], the total growth inhibition concentration (TGI) is more than 100 µM.
